From US20230265151A1, “GIP/GLP1 CO-AGONIST COMPOUNDS” (priority 2020, published 2023)
Read-outs that look alike come from different tables or passages of the source. *1 amine or outer side, *2 acyl side, *3 side chain or, on linkers, in order; H or OH if unused. Where a SMILES comes first, the peptide text is derived from it. Side-chain parts run from the residue outwards. [ ]: non-standard residue; d: D form. The star is where a group is joined. αMePhe(2-F) = C[C@](N)(Cc1ccccc1F)C(=O)O; γGlu = O=C(O)[C@H](CCC(=O)[*:2])N[*:1]; C14 diacid = O=C(O)CCCCCCCCCCCCC(=O)*; αMeY = C[C@](N)(Cc1ccc(O)cc1)C(=O)O; 4Pal = N[C@@H](Cc1ccncc1)C(=O)O; αMeL = CC(C)C[C@](C)(N)C(=O)O; Orn = NCCC[C@H](N)C(=O)O; AEEA = NCCOCCOCC(=O)O; Aib = CC(C)(N)C(=O)O

What was measured:
Assay type in all cases: cell-based
hGIPR = target: T1, hGIPR (Homo sapiens, UniProt P48546); assay: Functional cAMP formation (HTRF) in HEK-293 clonal cells expressing hGIPR, 0.1% bovine casein, without or with 1.0% human serum albumin; settings: for EC50: geometric mean
T1 construct: expressed in transfected cells
T1 sequence (P48546 22-466): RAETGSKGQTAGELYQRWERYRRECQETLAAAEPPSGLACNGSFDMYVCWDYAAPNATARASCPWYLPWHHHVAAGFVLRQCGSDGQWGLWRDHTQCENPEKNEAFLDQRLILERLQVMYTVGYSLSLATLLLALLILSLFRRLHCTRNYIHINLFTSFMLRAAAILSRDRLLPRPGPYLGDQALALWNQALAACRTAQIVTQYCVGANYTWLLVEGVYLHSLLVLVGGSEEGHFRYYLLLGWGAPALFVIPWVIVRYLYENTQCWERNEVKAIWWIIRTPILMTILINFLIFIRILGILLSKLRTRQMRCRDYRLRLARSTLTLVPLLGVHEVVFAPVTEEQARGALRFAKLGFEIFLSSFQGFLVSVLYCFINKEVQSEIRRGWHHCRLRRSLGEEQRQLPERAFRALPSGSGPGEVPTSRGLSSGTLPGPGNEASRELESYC
Procedure, shortened: (§1)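 Cells were stimulated with peptide for 30 min at 37° C, then intracellular cAMP was measured by competitive HTRF (665/620 nm ratio) and converted to nM using a cAMP standard curve. Relative EC50 and Emax came from four-parameter logistic fits of percent maximal response against peptide concentration.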

hGCGR = target: T2, hGCGR (Homo sapiens, UniProt P47871); assay: Functional cAMP formation (HTRF) in HEK-293 clonal cells expressing hGCGR, 0.1% bovine casein, without or with 1.0% human serum albumin
T2 construct: expressed in transfected cells
T2 sequence (P47871 26-477): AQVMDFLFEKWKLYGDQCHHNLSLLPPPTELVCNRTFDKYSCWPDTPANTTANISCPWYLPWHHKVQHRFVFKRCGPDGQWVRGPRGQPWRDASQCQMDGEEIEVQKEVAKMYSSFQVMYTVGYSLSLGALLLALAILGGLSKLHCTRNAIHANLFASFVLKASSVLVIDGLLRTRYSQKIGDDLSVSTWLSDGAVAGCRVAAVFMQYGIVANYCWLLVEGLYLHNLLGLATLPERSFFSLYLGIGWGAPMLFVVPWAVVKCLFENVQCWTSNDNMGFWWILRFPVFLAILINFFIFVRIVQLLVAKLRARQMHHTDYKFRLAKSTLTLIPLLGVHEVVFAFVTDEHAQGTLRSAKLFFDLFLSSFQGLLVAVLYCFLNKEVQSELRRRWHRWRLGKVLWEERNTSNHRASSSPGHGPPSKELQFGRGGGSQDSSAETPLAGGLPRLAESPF
Procedure, shortened: as §1

hGLP-1R = hGLP-1R (Homo sapiens, UniProt P43220); assay: Functional cAMP formation (HTRF) in HEK-293 clonal cells expressing hGLP-1R, 0.1% bovine casein, without or with 1.0% human serum albumin; set-up: expressed in transfected cells; settings: for EC50: geometric mean
hGLP-1R, sequence (P43220 24-463): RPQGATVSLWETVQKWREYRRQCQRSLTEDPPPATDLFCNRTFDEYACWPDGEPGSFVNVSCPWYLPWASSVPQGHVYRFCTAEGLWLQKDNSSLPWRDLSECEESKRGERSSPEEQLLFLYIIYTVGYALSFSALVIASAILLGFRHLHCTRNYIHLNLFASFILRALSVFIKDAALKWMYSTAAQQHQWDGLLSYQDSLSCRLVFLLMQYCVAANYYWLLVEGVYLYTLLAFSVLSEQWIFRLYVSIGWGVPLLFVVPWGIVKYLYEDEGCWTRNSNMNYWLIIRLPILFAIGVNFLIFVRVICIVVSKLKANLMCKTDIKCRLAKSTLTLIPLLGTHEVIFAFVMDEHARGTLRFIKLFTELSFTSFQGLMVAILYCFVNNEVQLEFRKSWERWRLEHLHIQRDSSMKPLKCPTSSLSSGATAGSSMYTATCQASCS
Procedure, shortened: as §1

[1] = HEK293, 0.1% bovine casein and 1.0% human serum albumin, 37° C., percent of maximal response to GIP(1-42)NH2, read-out: hGIPR Emax, % ± SEM
[2] = HEK293, percent of maximal response to GIP(1-42)NH2, 37° C., 0.1% bovine casein, arithmetic mean, read-out: hGIPR Emax, % ± SEM
[3] = cAMP, incubated at 37° C., 0.1% bovine casein (no human serum albumin), read-out: hGIPR EC50, nM (SEM, n)
[4] = 0.1% bovine casein and 1.0% human serum albumin, 37° C., geometric mean, read-out: hGCGR EC50, nM (SEM, n)
[5] = cAMP, incubated at 37° C., 0.1% bovine casein (no human serum albumin), geometric mean, read-out: hGCGR EC50, nM (SEM, n)
[6] = HEK293, 0.1% bovine casein and 1.0% human serum albumin, 37° C., percent of maximal response to GLP-1(7-36)NH2, read-out: hGLP-1R Emax, % ± SEM
[7] = HEK293, percent of maximal response to GLP-1(7-36)NH2, 37° C., 0.1% bovine casein, arithmetic mean, read-out: hGLP-1R Emax, % ± SEM
[8] = cAMP, incubated at 37° C., 0.1% bovine casein (no human serum albumin), read-out: hGLP-1R EC50, nM (SEM, n)

SMILES	Emax (hGIPR; [1]) [%]	Emax (hGIPR; [2]) [%]	EC50 (hGIPR; [3]) [nM]	EC50 (hGCGR; [4]) [nM]	EC50 (hGCGR; [5]) [nM]	Emax (hGLP-1R; [6]) [%]	Emax (hGLP-1R; [7]) [%]	EC50 (hGLP-1R; [8]) [nM]	further results
CC[C@H](C)[C@H](NC(=O)[C@H](CC(C)C)NC(=O)[C@](C)(Cc1ccc(O)cc1)NC(=O)[C@@H](CCC(=O)O)NC(=O)[C@@H](NC(=O)[C@H](Cc1ccccc1)NC(=O)[C@H](CCC(=O)O)NC(=O)C(C)(C)NC(=O)[C@H](CCC(N)=O)NC(=O)[C@H](C)NC(=O)[C@H](CCCCNC(=O)COCCOCCNC(=O)COCCOCCNC(=O)CC[C@H](NC(=O)CCCCCCCCCCCCC(=O)O)C(=O)O)NC(=O)[C@H](CCCN)NC(=O)[C@H](CC(=O)O)NC(=O)[C@H](CC(C)C)NC(=O)[C@](C)(CC(C)C)NC(=O)[C@@H](NC(=O)[C@H](CO)NC(=O)[C@H](Cc1ccncc1)NC(=O)[C@H](CC(=O)O)NC(=O)[C@H](CO)NC(=O)[C@@H](NC(=O)[C@](C)(Cc1ccccc1F)NC(=O)[C@@H](NC(=O)CNC(=O)[C@H](CCC(=O)O)NC(=O)C(C)(C)NC(=O)[C@@H](N)Cc1ccc(O)cc1)[C@@H](C)O)[C@@H](C)O)[C@@H](C)CC)[C@@H](C)CC)C(=O)N[C@@H](CCC(=O)O)C(=O)NCC(=O)NCC(=O)N[C@@H](CCCCNC(=O)COCCOCCNC(=O)COCCOCCNC(=O)CC[C@H](NC(=O)CCCCCCCCCCCCC(=O)O)C(=O)O)C(=O)N[C@@H](CO)C(=O)N[C@@H](CO)C(=O)NCC(=O)N[C@@H](CCCN)C(=O)N1CCC[C@H]1C(=O)N1CCC[C@H]1C(=O)N1CCC[C@H]1C(=O)N[C@@H](CO)C(N)=O [Example 153] (H-Y[Aib]EGT[αMePhe(2-F)]TSD[4Pal]SI[αMeL]LD[Orn]K([AEEA-AEEA-γGlu-C14 diacid])AQ[Aib]EFI[dE][αMeY]LIEGGK([AEEA-AEEA-γGlu-C14 diacid])SSG[Orn]PPPS-NH2)	94.1 ± 3.21	97.8 ± 2.74	0.0277	> 9950	> 9950	98.2 ± 5.4	91.8 ± 4.63	1.1	EC50 (hGIPR; 0.1% bovine casein and 1.0% human serum albumin, 37° C., read-out: hGIPR EC50, nM (SEM, n)): 1.15 nM; EC50 (hGLP-1R; 0.1% bovine casein and 1.0% human serum albumin, 37° C., read-out: hGLP-1R EC50, nM (SEM, n)): 40.8 nM
CC[C@H](C)[C@H](NC(=O)[C@H](CC(C)C)NC(=O)[C@](C)(Cc1ccc(O)cc1)NC(=O)[C@@H](CCC(=O)O)NC(=O)[C@@H](NC(=O)[C@](C)(Cc1ccccc1)NC(=O)[C@H](CCC(=O)O)NC(=O)C(C)(C)NC(=O)[C@H](CCC(N)=O)NC(=O)[C@H](C)NC(=O)[C@H](CCCCNC(=O)COCCOCCNC(=O)COCCOCCNC(=O)CC[C@H](NC(=O)CCCCCCCCCCCCC(=O)O)C(=O)O)NC(=O)[C@H](CCCN)NC(=O)[C@H](CC(=O)O)NC(=O)[C@H](CC(C)C)NC(=O)[C@](C)(CC(C)C)NC(=O)[C@@H](NC(=O)[C@H](CO)NC(=O)C1(NC(=O)[C@H](CC(=O)O)NC(=O)[C@H](CO)NC(=O)[C@@H](NC(=O)[C@](C)(Cc2ccccc2F)NC(=O)[C@@H](NC(=O)CNC(=O)[C@H](CCC(=O)O)NC(=O)C(C)(C)NC(=O)[C@@H](N)Cc2ccc(O)cc2)[C@@H](C)O)[C@@H](C)O)CCCC1)[C@@H](C)CC)[C@@H](C)CC)C(=O)N[C@@H](CCC(=O)O)C(=O)NCC(=O)NCC(=O)N[C@@H](CCCCNC(=O)COCCOCCNC(=O)COCCOCCNC(=O)CC[C@H](NC(=O)CCCCCCCCCCCCC(=O)O)C(=O)O)C(=O)N[C@@H](CO)C(=O)N[C@@H](CO)C(=O)NCC(=O)N[C@@H](C)C(=O)N1CCC[C@H]1C(=O)N1CCC[C@H]1C(=O)N1CCC[C@H]1C(=O)N[C@@H](CO)C(N)=O [Example 94]	97.1	91	0.0132	> 9950	> 9950	113	97.4	2.1	–
CC[C@H](C)[C@H](NC(=O)[C@H](CCCN)NC(=O)[C@H](CC(=O)O)NC(=O)[C@H](CC(C)C)NC(=O)[C@](C)(CC(C)C)NC(=O)[C@@H](NC(=O)C(C)(C)NC(=O)[C@H](Cc1ccc(O)cc1)NC(=O)[C@H](CC(=O)O)NC(=O)[C@H](CO)NC(=O)[C@@H](NC(=O)[C@](C)(Cc1ccccc1F)NC(=O)[C@@H](NC(=O)CNC(=O)[C@H](CCC(=O)O)NC(=O)C(C)(C)NC(=O)[C@@H](N)Cc1ccc(O)cc1)[C@@H](C)O)[C@@H](C)O)[C@@H](C)CC)C(=O)N[C@@H](C)C(=O)N[C@@H](CCC(N)=O)C(=O)NC(C)(C)C(=O)N[C@@H](CCCCNC(=O)COCCOCCNC(=O)CC[C@H](NC(=O)CCCCCCCCCCCCC(=O)O)C(=O)O)C(=O)N[C@@H](Cc1ccccc1)C(=O)N[C@H](C(=O)N[C@H](CCC(=O)O)C(=O)N[C@@](C)(Cc1ccc(O)cc1)C(=O)N[C@@H](CC(C)C)C(=O)N[C@H](C(=O)N[C@@H](CCCCNC(=O)COCCOCCNC(=O)CC[C@H](NC(=O)CCCCCCCCCCCCC(=O)O)C(=O)O)C(=O)NCC(=O)NCC(=O)N1CCC[C@H]1C(=O)N[C@@H](CO)C(=O)N[C@@H](CO)C(=O)NCC(=O)N[C@@H](C)C(=O)N1CCC[C@H]1C(=O)N1CCC[C@H]1C(=O)N1CCC[C@H]1C(=O)N[C@@H](CO)C(N)=O)[C@@H](C)CC)[C@@H](C)CC [Example 370] (H-Y[Aib]EGT[αMePhe(2-F)]TSDY[Aib]I[αMeL]LD[Orn]IAQ[Aib]K([AEEA-γGlu-C14 diacid])FI[dE][αMeY]LIK([AEEA-γGlu-C14 diacid])GGPSSGAPPPS-NH2)	–	–	–	–	–	–	–	–	Emax (hGIPR; HEK293, cAMP, 37° C., 0.1% bovine casein, percent of maximal response to GIP(1-42)NH2, arithmetic mean, read-out: hGIPR Emax, % ± SEM): 105%; EC50 (hGIPR; cAMP, 37° C., 0.1% bovine casein (no human serum albumin), read-out: hGIPR EC50, nM (SEM, n)): 0.0282 nM; EC50 (hGCGR; cAMP, 37° C., 0.1% bovine casein (no human serum albumin), geometric mean, read-out: hGCGR EC50, nM (SEM, n)): > 9950 nM; Emax (hGLP-1R; HEK293, cAMP, 37° C., 0.1% bovine casein, percent of maximal response to GLP-1(7-36)NH2, arithmetic mean, read-out: hGLP-1R Emax, % ± SEM): 112%; EC50 (hGLP-1R; cAMP, 37° C., 0.1% bovine casein (no human serum albumin), read-out: hGLP-1R EC50, nM (SEM, n)): 0.402 nM
CC[C@H](C)[C@H](NC(=O)[C@H](CC(C)C)NC(=O)[C@](C)(Cc1ccc(O)cc1)NC(=O)[C@@H](CCC(=O)O)NC(=O)[C@@H](NC(=O)[C@H](Cc1ccccc1)NC(=O)[C@H](CCC(=O)O)NC(=O)C(C)(C)NC(=O)[C@H](CCC(N)=O)NC(=O)[C@H](C)NC(=O)[C@H](CCCCNC(=O)COCCOCCNC(=O)CC[C@H](NC(=O)CCCCCCCCCOc1ccc(C(=O)O)cc1)C(=O)O)NC(=O)[C@H](CCCN)NC(=O)[C@H](CC(=O)O)NC(=O)[C@H](CC(C)C)NC(=O)[C@](C)(CC(C)C)NC(=O)[C@@H](NC(=O)C(C)(C)NC(=O)[C@H](Cc1ccncc1)NC(=O)[C@H](CC(=O)O)NC(=O)[C@H](CO)NC(=O)[C@@H](NC(=O)[C@](C)(Cc1ccccc1F)NC(=O)[C@@H](NC(=O)CNC(=O)[C@H](CCC(=O)O)NC(=O)C(C)(C)NC(=O)[C@@H](N)Cc1ccc(O)cc1)[C@@H](C)O)[C@@H](C)O)[C@@H](C)CC)[C@@H](C)CC)C(=O)N[C@@H](CCC(=O)O)C(=O)NCC(=O)NCC(=O)N1CCC[C@H]1C(=O)N[C@@H](CO)C(=O)N[C@@H](CO)C(=O)NCC(=O)N[C@@H](C)C(=O)N1CCC[C@H]1C(=O)N1CCC[C@H]1C(=O)N1CCC[C@H]1C(=O)N[C@@H](CO)C(=O)N[C@@H](CCCCNC(=O)COCCOCCNC(=O)CC[C@H](NC(=O)CCCCCCCCCOc1ccc(C(=O)O)cc1)C(=O)O)C(N)=O [Example 362]	–	–	–	–	–	–	–	–	Emax (hGIPR; HEK293, read-out: hGIPR Emax, % ± SEM, cAMP, 37° C., 0.1% bovine casein and 1.0% human serum albumin, percent of maximal response to GIP(1-42)NH2): 86.7%; EC50 (hGIPR; hGIPR EC50, nM (SEM, n), cAMP, 37° C., 0.1% bovine casein (no human serum albumin)): 0.0131 nM; EC50 (hGCGR; hGCGR EC50, nM (SEM, n), cAMP, 37° C., 0.1% bovine casein (no human serum albumin), geometric mean): > 10100 nM; EC50 (hGCGR; hGCGR EC50, nM (SEM, n), cAMP, 37° C., 0.1% bovine casein and 1.0% human serum albumin, geometric mean (SEM, n)): > 9950 nM; Emax (hGLP-1R; HEK293, read-out: hGLP-1R Emax, % ± SEM, cAMP, 37° C., 0.1% bovine casein, percent of maximal response to GLP-1(7-36)NH2, arithmetic mean): 109%; EC50 (hGLP-1R; hGLP-1R EC50, nM (SEM, n), cAMP, 37° C., 0.1% bovine casein (no human serum albumin)): 0.34 nM
